# According to patent US7005513B1, “Functionalized glycosaminoglycan polymer and medical instruments and drugs by using the same” (Netech, Inc., priority 1999, dated 2006):
# Tested on: human coronary artery endothelial cells (CEC)
# Experiment: CEC proliferation on coated multiplate (WST-1)
# Type: cell-based
# Set-up: reference not given here
# Conditions: substance as plate coating, 3 days
# Procedure: A polystyrene 96-well multiplate was coated with aqueous P-I-20 or P-N-12 solutions (0.5 mg/ml) of the present invention, and also 2% gelatin and 10 μg/ml of human fibronectin solution, these were inoculated with 6,000 human coronary artery endothelial cells (CEC) suspended in a Dulbecco modified Eagle medium (10% fetal bovine serum added), after which FGF2 or VEGF165 were added as cell growth factors, and this was cultured from 3 days. After culturing, a WST-1 reagent (cell counting kit, Dojindo) was used to count the number of increased cells, and the results of an evaluation of the proliferation rate are shown in Table 1.
Substance,CEC Proliferation Rate (FGF2 4 μg/l),CEC Proliferation Rate (FGF2 8 μg/l),CEC Proliferation Rate (VEGF165 4 μg/l),CEC Proliferation Rate (VEGF165 8 μg/l)
Fibronectin,273,327,371,436
Gelatin,356,389,335,385
